The values below are quoted from earlier work in US20090215892A1, “Octanol Formulations and Methods of Treatment Using the Same” (priority 2005, published 2009).

In data set [1] the test system is essential tremor. The settings on record: lactose capsule form.
The conditions of data set [2]: ordinary conditions of use and storage.
The subject of data set [3] is mice. The settings on record: tested orally in mice.
Data set [4] deals with essential tremor. Conditions: twelve patients.
The test system of data set [5] is hereditary essential tremor. Conditions: patients with hereditary essential tremor.

As to `CCCCCCCCO` [Example 1-octanol, 1-octanol], the “solubility in water” value is “slightly soluble” and the “Solubility in Water at 40° C. (Wt %)” value is reported as 0.065 Wt %. Besides, the side-effect noted result in data set [1] (single oral doses up to 64 mg/kg) is recorded as “unusual taste”. In data set [1] (single oral doses, patients with essential tremor), the tolerated dose result is reported as “up to 64 mg/kg”. Also, the “stability” value in data set [2] was “stable”. Also, the “toxicity LD5O” value in data set [3] is 1790 mg/kg. In addition, in data set [4] (1 mg/kg 1-octanol, no improvement in placebo group (Bushara 2002)), the “duration of reduction of peak tremor amplitude versus baseline” value is reported as “up to 2 hours”. The “change of tremor amplitude frequency” value in data set [4] (single oral dose of 1 mg/kg, anhydrous lactose coated capsule (Bushara 2004)) is listed as “decrease”.
With `CCCCCCC(C)O` (centres unmarked) [Example 2-octanol, 2-octanol], the “Solubility in Water at 40° C. (Wt %)” value was 0.089 Wt %.
`CCCCC(O)CCC` (centres unmarked) [Example 4-octanol, 4-octanol]: the “Solubility in Water at 40° C. (Wt %)” value is reported as 0.095 Wt %.
Turning to `CCO` [ethanol], the “patients in whom treatment was effective” value in data set [5] is recorded as 50%.
